Molecules are shown by their SMILES. A value given as a limit tells only on which side of the number the result lay.

The test has as its target T1, CETP (Homo sapiens, UniProt P11597).
T1 sequence (P11597 18-493): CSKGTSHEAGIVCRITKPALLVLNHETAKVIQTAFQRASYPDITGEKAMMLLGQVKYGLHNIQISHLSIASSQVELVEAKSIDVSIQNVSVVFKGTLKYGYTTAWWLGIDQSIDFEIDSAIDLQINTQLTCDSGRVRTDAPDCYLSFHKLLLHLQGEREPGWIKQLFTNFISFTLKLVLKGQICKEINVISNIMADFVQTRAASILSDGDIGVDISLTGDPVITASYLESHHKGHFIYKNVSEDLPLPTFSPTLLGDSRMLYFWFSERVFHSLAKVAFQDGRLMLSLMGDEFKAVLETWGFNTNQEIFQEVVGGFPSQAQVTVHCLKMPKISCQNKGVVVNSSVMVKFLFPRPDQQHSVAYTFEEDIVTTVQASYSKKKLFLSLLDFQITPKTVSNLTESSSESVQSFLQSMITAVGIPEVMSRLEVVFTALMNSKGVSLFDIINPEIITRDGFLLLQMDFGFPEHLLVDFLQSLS
Briefly: Assay of CETP inhibition using purified components (reconstituted buffer assay): transfer of [3H]CE from HDL to LDL. The conditions noted are these: 2 hours at 37°C. Details: made in house; host or cells: CHO cells (serum-free conditioned medium). The format is biochemical. As for the experimental part:
ASSAY OF CETP INHIBITION USING PURIFIED COMPONENTS (RECONSTITUTED BUFFER ASSAY)
The ability of compounds to inhibit CETP activity was assessed using an in vitro assay that measured the rate of transfer of radiolabeled cholesteryl ester ([^3H]CE) from HDL donor particles to LDL acceptor particles. Details of the assay are provided by Glenn, K. C. et al. (Glenn and Melton, "Quantification of Cholesteryl Ester Transfer Protein (CETP): A) CETP Activity and B) Immunochemical Assay of CETP Protein," Meth. Enzymol., 263, 339-351 (1996)). Human recombinant CETP can be obtained from the serum-free conditioned medium of CHO cells transfected with a cDNA for CETP and purified as described by Wang, S. et al. (J. Biol. Chem. 267, 17487-17490 (1992)). To measure CETP activity, [^3H]CE-labeled-HDL, LDL, CETP and assay buffer (50 mM tris(hydroxymethyl)aminomethane, pH 7.4; 150 mM sodium chloride; 2 mM ethylenediamine-tetraacetic acid (EDTA); 1% bovine serum albumin) were incubated in a final volume of 200 µL, for 2 hours at 37°C in 96 well plates. […] The inhibitors were then diluted 1:1 with CETP in assay buffer, and then 25 µL of that solution was mixed with 175 µL of lipoprotein pool for assay. Following incubation, LDL was differentially precipitated by the addition of 50 µL of 1% (w/v) dextran sulfate/0.5 M magnesium chloride, mixed by vortex, and incubated at room temperature for 10 minutes. A potion of the solution (200 µL) was transferred to a filter plate (Millipore). After filtration, the radioactivity present in the precipitated LDL was measured by liquid scintillation counting.
This value was defined as the IC50.
As a reminder, the IC50 is the concentration that gives 50% inhibition. Lower therefore signals higher potency. For `CCCOc1cccc(CN(CC(O)C(F)(F)F)c2cccc(Oc3ccc(F)cc3)c2)c1` (stereo not drawn) [compound 648], half-maximal inhibition (IC50) required 0.83 µM.

In the case of `O=C(c1c(F)c(F)c(F)c(F)c1F)N(CC(O)C(F)(F)F)c1cccc(OC(F)(F)F)c1` (stereo not drawn) [compound 343], it took 100 µM to reach half-maximal inhibition (IC50).

Take `O=C(c1cccc(N(Cc2cccc(OC(F)(F)C(F)F)c2)CC(O)C(F)(F)F)c1)N1CCOCC1` (stereo not drawn) [compound 471]: the IC50 was determined as 50 µM.

Regarding `Cc1ccc(CN(CC(O)C(F)(F)F)c2cccc(C(F)(F)F)c2)cc1` (stereo not drawn) [compound 45], 100 µM corresponded to half-maximal inhibition (IC50).

Consider `Cc1ccccc1N(Cc1cccc(C(F)(F)F)c1)CC(O)C(F)(F)F` (stereo not drawn) [compound 21], for which the IC50 was more than 100 µM.

On to `OCCCOc1cccc(N(Cc2cccc(OC(F)(F)C(F)F)c2)CC(O)C(F)(F)F)c1` (stereo not drawn) [compound 504], for which the IC50 was found to be 14 µM.

In turn, `CC(C)(C)COc1cccc(N(Cc2cccc(OC(F)(F)C(F)F)c2)CC(O)C(F)(F)F)c1` (stereo not drawn) [compound 506] yielded an IC50 of 0.97 µM.

As for `O=C(c1cccc(C(F)(F)F)c1)N(CC(O)C(F)(F)F)c1cccc(F)c1` (stereo not drawn) [Example 663, N-(3-fluorophenyl)-N-(3,3,3-trifluoro-2-hydroxypropyl)-3-(trifluoromethyl)benzamide], half-maximal inhibition (IC50) was put at 100 µM.

Regarding `Cc1ccccc1CN(CC(O)C(F)(F)F)c1cccc(F)c1` (stereo not drawn) [compound 671], the half-inhibitory concentration (IC50) was more than 100 µM.

With `OC(CF)CN(Cc1cccc(OC(F)(F)F)c1)Cc1cccc(OC(F)(F)F)c1` (stereo not drawn) [compound 697], half-maximal inhibition (IC50) required 55 µM.

Molecule `OC(CN(Cc1ccccc1)c1cccc(Oc2ccccc2)c1)C(F)(F)F` (stereo not drawn) [compound 217] gave an IC50 of 32 µM.

With `CC(C)(C)c1ccc(COc2cccc(N(Cc3cccc(OC(F)(F)C(F)F)c3)CC(O)C(F)(F)F)c2)cc1` (stereo not drawn) [compound 418], the half-inhibitory concentration (IC50) amounted to 2.1 µM.

Take `OC(CN(Cc1ccccc1F)Cc1ccccc1C(F)(F)F)C(F)(F)F` (stereo not drawn) [compound 696]: the half-inhibitory concentration (IC50) came out at 100 µM.

In the case of `Cc1ccc(N(Cc2cccc(F)c2)CC(O)C(F)(F)F)cc1` (stereo not drawn) [compound 32], the half-inhibitory concentration (IC50) was more than 100 µM.

In turn, `OC(CN(Cc1cccc(SC(F)(F)F)c1)c1cccc(Oc2ccc(F)cc2)c1)C(F)(F)F` (stereo not drawn) [compound 636] showed a half-inhibitory concentration (IC50) of 0.39 µM.

With `OC(CN(Cc1cccc(OC(F)(F)C(F)F)c1)c1cccc(OCc2ccccn2)c1)C(F)(F)F` (stereo not drawn) [compound 432], half-maximal inhibition (IC50) required 1.7 µM.

Regarding `OC(CN(Cc1ccccc1)c1cccc(F)c1)C(F)(F)F` (stereo not drawn) [compound 10], the 50% inhibitory concentration (IC50) was more than 100 µM.

`OC(CN(Cc1cccc(Oc2cccc(C(F)(F)F)c2)c1)c1cccc(F)c1)C(F)(F)F` (stereo not drawn) [compound 674] returned an IC50 of more than 100 µM.

On to `OC(CN(Cc1ccccc1)c1ccccc1)C(F)(F)F` (stereo not drawn) [compound 2], for which inhibition was half-maximal at 100 µM (IC50).

With `Cc1cccc(CN(CC(O)C(F)(F)F)c2cccc(F)c2)c1` (stereo not drawn) [compound 49], the concentration for half-maximal inhibition (IC50) was more than 100 µM.

`COc1ccc(OC)c(C(=O)CN(CC(O)C(F)(F)F)c2cccc(OC(F)(F)F)c2)c1` (stereo not drawn) [compound 340] gave an IC50 of 100 µM.

Regarding `O=C(OC(CN(C(=O)c1cccc(C(F)(F)F)c1)c1cccc(F)c1)C(F)(F)F)c1cccc(C(F)(F)F)c1` (stereo not drawn) [Example 662, 2,2,2-trifluoro-1-[[(3-fluorophenyl)[3-(trifluoromethyl)benzoyl]amino]-methyl]ethyl 3-trifluoromethylbenzoate], the IC50 was found to be 50 µM. Against the preceding molecule, the IC50 is about 2-fold lower.

`O=C(O)c1ccc(COc2cccc(N(Cc3cccc(OC(F)(F)C(F)F)c3)CC(O)C(F)(F)F)c2)cc1` (stereo not drawn) [EX-435B, 4-[[3-[[[3-(1,1,2,2-tetrafluoroethoxy)phenyl]methyl](3,3,3-trifluoro-2-hydroxypropyl)amino]phenoxy]methyl]benzoic acid] gave an IC50 of more than 50 µM.

Consider `Cc1ccc(CN(CC(O)C(F)(F)F)c2cccc(Cl)c2)cc1` (stereo not drawn) [compound 34], for which the concentration for half-maximal inhibition (IC50) was determined as 50 µM.

Molecule `OC(CN(Cc1cccc(Oc2ccc(Cl)cc2)c1)c1cccc(OC(F)(F)F)c1)C(F)(F)F` (stereo not drawn) [compound 93] came in with a half-maximal inhibitory concentration (IC50) of 50 µM.

In the case of `COc1cc2c(cc1N(Cc1cccc(OC(F)(F)F)c1)CC(O)C(F)(F)F)oc1ccccc12` (stereo not drawn) [compound 698], the IC50 was 100 µM.

`Fc1ccc(Oc2cccc(NCc3cccc(OC(F)(F)C(F)F)c3)c2)cc1` [634C]: the IC50 is more than 100 µM.

With `OC(CN(Cc1cccc(F)c1)c1cccc(F)c1)C(F)(F)F` (stereo not drawn) [compound 18], half-maximal inhibition (IC50) was put at 60 µM. That is a double-digit micromolar value.

Molecule `OC(CN(Cc1cccc(OC(F)(F)C(F)F)c1)c1cccc(Oc2cccc(C(F)(F)F)c2F)c1)C(F)(F)F` (stereo not drawn) [compound 227] registered a half-inhibitory concentration (IC50) of 0.13 µM.

Molecule `O=C(C=Cc1ccccc1)N(CC(O)C(F)(F)F)c1cccc(OC(F)(F)F)c1` (stereo not drawn) [compound 351] showed an IC50 of 50 µM.

Turning to `OC(CN(Cc1ccc(C(F)(F)F)cc1)c1cccc(Oc2ccc(F)cc2)c1)C(F)(F)F` (stereo not drawn) [compound 640], 4.3 µM corresponded to half-maximal inhibition (IC50). Against the preceding molecule, the IC50 is about 12-fold lower.

The molecule `OC(COC(F)(F)C(F)F)CN(Cc1cccc(OC(F)(F)C(F)F)c1)c1cccc(Oc2ccc(F)cc2)c1` (stereo not drawn) [compound 701] had a concentration for half-maximal inhibition (IC50) of 4.5 µM.

Molecule `Cc1cc(Oc2cccc(N(Cc3cccc(OC(F)(F)C(F)F)c3)CC(O)C(F)(F)F)c2)ccc1F` (stereo not drawn) [compound 242] displayed a concentration for half-maximal inhibition (IC50) of 0.076 µM.

`OC(CN(Cc1cccc(OC(F)(F)C(F)F)c1)c1cccc(Cc2ccccc2)c1)C(F)(F)F` (stereo not drawn) [compound 515] yielded an IC50 of 1.8 µM.

For `OC(CN(Cc1ccc(C(F)(F)F)cc1)c1ccc(F)c(F)c1)C(F)(F)F` (stereo not drawn) [compound 22], the IC50 came to 50 µM.

For `COc1ccccc1CC(=O)N(CC(O)C(F)(F)F)c1cccc(OC(F)(F)F)c1` (stereo not drawn) [compound 339], the IC50 is more than 100 µM.

Molecule `OC(CN(Cc1ccccc1C(F)(F)F)c1cccc(F)c1)C(F)(F)F` (stereo not drawn) [compound 670] registered a 50% inhibitory concentration (IC50) of more than 100 µM.

`CCOc1cccc(CN(CC(O)C(F)(F)F)c2cccc(Oc3ccc(F)cc3)c2)c1` (stereo not drawn) [compound 646]: the concentration for half-maximal inhibition (IC50) came to 0.77 µM.

Regarding `CC(C)COc1cccc(CN(CC(O)C(F)(F)F)c2cccc(Oc3ccc(F)cc3)c2)c1` (stereo not drawn) [compound 652], half-maximal inhibition (IC50) was put at 1.5 µM.

The molecule `OC(CN(Cc1cccc(OC(F)(F)F)c1)c1cc(Oc2ccc(F)cc2)cc(C(F)(F)F)c1)C(F)(F)F` (stereo not drawn) [compound 643] registered an IC50 of 2.1 µM. This IC50 and that of the molecule before are within 1.5-fold of each other.

With `COC(=O)c1cccc(CN(CC(O)C(F)(F)F)c2cccc(OC(F)(F)F)c2)c1` (stereo not drawn) [compound 325], the IC50 is more than 100 µM.

Consider `COc1cc(CN(CC(O)C(F)(F)F)c2cccc(OC(F)(F)F)c2)cc(OC)c1` (stereo not drawn) [compound 350], for which the IC50 came out at 50 µM.

The molecule `OC(CN(Cc1ccc(-c2ccccc2)cc1)c1cccc(OC(F)(F)F)c1)C(F)(F)F` (stereo not drawn) [compound 333] showed an IC50 of 100 µM.

Molecule `OC(CN(Cc1cccc(OC(F)(F)C(F)F)c1)c1cccc(Oc2nccs2)c1)C(F)(F)F` (stereo not drawn) [compound 448] displayed a 50% inhibitory concentration (IC50) of 4.3 µM.

Take `OC(CN(Cc1cccc(OC(F)(F)C(F)F)c1)c1cccc(-c2ccccc2)c1)C(F)(F)F` (stereo not drawn) [compound 564]: the 50% inhibitory concentration (IC50) is 2.5 µM.

In turn, `OCc1cccc(CN(CC(O)C(F)(F)F)c2cccc(Oc3ccccc3)c2)c1` (stereo not drawn) [Example 618, 3-[[(3-phenoxyphenyl)(3,3,3-trifluoro-2-hydroxypropyl)amino]methyl]benzenemethanol] displayed a 50% inhibitory concentration (IC50) of 100 µM. This IC50 is about 40-fold higher than that of the molecule before.

Molecule `OC(CN(Cc1cccc(OC(F)(F)C(F)F)c1)c1cccc(OCc2cccc(SC(F)(F)F)c2)c1)C(F)(F)F` (stereo not drawn) [compound 410] displayed a half-inhibitory concentration (IC50) of 0.19 µM.

Molecule `Cc1ccc(CN(CC(O)C(F)(F)F)c2ccc(C(F)(F)F)cc2)cc1` (stereo not drawn) [compound 672] gave an IC50 of 100 µM. This IC50 lies about 530-fold higher than the previous one.

As to `OC(CN(Cc1cccc(OC(F)(F)C(F)F)c1)c1cccc(Oc2ccc(S)cc2)c1)C(F)(F)F` (stereo not drawn) [compound 263], the IC50 is more than 50 µM.

`COc1cccc(N(Cc2cccc(C)c2)CC(O)C(F)(F)F)c1` (stereo not drawn) [Example 3] showed an IC50 of 60 µM.

As to `OC(CN(Cc1cccc(Oc2cc(Cl)cc(Cl)c2)c1)c1cccc(OC(F)(F)F)c1)C(F)(F)F` (stereo not drawn) [compound 96], the IC50 turned out to be 50 µM. This IC50 and that of the molecule before are within 1.5-fold of each other.

Regarding `O=C(Cc1ccccc1Oc1ccccc1)N(CC(O)C(F)(F)F)c1cccc(OC(F)(F)F)c1` (stereo not drawn) [compound 361], the 50% inhibitory concentration (IC50) was more than 100 µM.

`OC(CN(Cc1cccc(OC(F)(F)C(F)F)c1)c1cccc(OCc2cc(F)cc(C(F)(F)F)c2)c1)C(F)(F)F` (stereo not drawn) [compound 411] showed a 50% inhibitory concentration (IC50) of 0.25 µM.

As for `CCCCOc1ccc(CN(CC(O)C(F)(F)F)c2cccc(OC(F)(F)F)c2)cc1` (stereo not drawn) [compound 120], the IC50 was determined as 50 µM.

(Values after EP1115693B9, “SUBSTITUTED POLYCYCLIC ARYL AND HETEROARYL $i([sequence])-HETEROALKYLAMINES USEFUL FOR INHIBITING CHOLESTERYL ESTER [sequence] PROTEIN ACTIVITY” (Monsanto Company, priority 1998, dated 2000).)
